Results taken from patent US12668646B2, “Cross-linking compounds and methods of use thereof” (North Carolina State University, priority 2019, dated 2026).
Values joined by “and” are separate entries in the source; they are usually repeats but may differ in a detail not shown here. Identical values can stand only once.

Columns and labels:
Format in all cases: biochemical
[1] = biological target: T1, β-glucosidase from Agrobacterium sp. (Agrobacterium sp., UniProt P12614); assay: Oligomerization of compound V with β-glucosidase
T1 construct: purchased Megazyme
T1 sequence (P12614 1-459): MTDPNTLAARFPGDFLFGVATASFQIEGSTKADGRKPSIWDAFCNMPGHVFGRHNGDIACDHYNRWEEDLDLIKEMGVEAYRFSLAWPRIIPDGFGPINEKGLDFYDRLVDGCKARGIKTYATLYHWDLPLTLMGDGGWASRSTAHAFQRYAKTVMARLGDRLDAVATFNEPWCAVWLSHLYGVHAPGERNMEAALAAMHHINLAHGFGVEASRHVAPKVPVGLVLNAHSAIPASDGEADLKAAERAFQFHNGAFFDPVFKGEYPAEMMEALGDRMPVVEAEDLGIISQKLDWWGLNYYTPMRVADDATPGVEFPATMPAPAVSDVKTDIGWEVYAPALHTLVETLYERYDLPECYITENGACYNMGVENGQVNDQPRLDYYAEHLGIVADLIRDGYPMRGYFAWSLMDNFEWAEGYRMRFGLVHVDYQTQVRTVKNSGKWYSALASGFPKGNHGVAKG
Protocol: The oligomerization of compound V was examined by treatment with the enzyme […]-glucosidase. The reaction mixture contained 50 μM of compound V and 200 nM of β-glucosidase (250-fold ratio). The reaction mixture was only faintly blue but upon centrifugation after 5 h of incubation, a blue precipitate was obtained. According to the colors of samples (FIG. 13, panel A), the yield of precipitate is low by comparison with our previously reported enzyme-substrate pairs (see Example 1). Multiple additions of enzyme (4×0.20 μM of enzyme stock, every 2 h) and longer incubation times (10 h or 24 h) were also tested but no increase in solution intensity or precipitate was observed. For the samples after 300 min of incubation, the precipitates suspended in H2O were screened by optical microscopy (FIG. 13, panel B) and DLS (FIG. 13, panel C). The size of aggregates is between 100 and 1000 nm as measured by DLS, which is consistent with the images obtained by optical microscopy (˜1 μm).
Quantitation of the indigogenic compounds in the precipitate and supernatant was carried out by absorption spectroscopy and multicomponent analysis (MCA) (M. Taniguchi, et al., Photochem. Photobiol., 2018, 94, 277-289) (FIG. 13, panels D and E). MCA analysis is essential due to the overlaid spectra of indigo and coumarin at 362 nm, the peak wavelength for the coumarin. Spectral deconvolution relied on knowledge of the molar absorption coefficient at 362 nm of coumarin (εcou362=2.0×10^4 M^−1 cm^−1 measured in DMF) and indigo model compound F19 (see Example 1 where F-19 is compound 43) shown in Chart 2 (εind362=0.81×10^4 M^−1 cm^−1 measured in DMSO/H2O, v/v=2/1); and the molar absorption coefficient of F19 at 630 nm (εind630=2.6×10^4 M^[…] cm^−1, measured in DMSO/H2O, v/v=2/1). The residual upon MCA was smaller than any of the components, as required for accurate analysis (Y. Mang, et al., Phytochem. Anal., 2018, 29, 205-216). In this manner, the precipitate is composed of 51.6 nmol of coumarin and 2.8 nmol of indigoid dye; the supernatant is composed of 11.1 nmol of coumarin and 0.3 nmol of indigoid dye.
Materials. DMF (HPLC grade) was purchased from Alfa Aesar. H2O (molecular biology grade) for buffer preparation was purchased from Millipore Sigma. Compound V (5.6 mg) was dissolved in DMF (26 μL) to prepare 100 mM stock solution. Pi buffer was prepared freshly at 10 mM, pH 7. The enzyme β-glucosidase from Agrobacterium sp. was purchased from MegaZyme and was dissolved in Pi buffer at 10 μM to prepare the stock solution.
To screen the oligomerization procedure of compound V, samples of Pi buffer (1859 μL), DMF (100 μL), β-glucosidase stock (40 μL) and compound V stock (1 μL) were mixed in a 2-mL Eppendorf tube. The resulting mixed sample (2.0 mL) contains 50 μM of compound V as the substrate and 0.20 μM of β-glucosidase as the enzyme. Three identical samples were prepared for different assays. For a control sample, 40 μL of Pi buffer was added as a replacement for the β-glucosidase stock solution. The tubes were incubated at 37° C. for 5 h, and pictures of the tubes were captured at 0, 15, 30, 60, 120, 180 and 300 min. After 300 min, the tubes were centrifuged at 20,000×g for 10 min to isolate any precipitate from the supernatant. No precipitate formed in the control sample.
Three samples were treated differently for three assays: (1) for sample 1, the precipitate was dissolved in 100 μL of DMF for absorption screening; (2) for sample 2, the precipitate was suspended in 100 μL of H2O for microscopic imaging; and (3) for sample 3, the precipitate was suspended in 1000 μL of H2O for dynamic light scattering (DLS) assay. The supernatant of sample 1 was freeze-dried under high vacuum and afterwards dissolved in 100 μL of DMF for absorption screening. The absorption spectra of the precipitates and supernatants were employed for quantitation of indigo and coumarin. […]

[2] = system: β-glucosidase from almonds; assay: Indigogenic reaction with β-glucosidase from almonds
[3] = biological target: T2, β-glucosidase from Agrobacterium (Agrobacterium sp., UniProt P12614); assay: Indigogenic reaction with β-glucosidase from Agrobacterium
T2 construct: purchased Megazyme
T2 sequence (P12614 1-459): T1 sequence (P12614 1-459)
Protocol: Next, the β-glucosidase from Agrobacterium sp. was investigated as the trigger enzyme for indigoid dye formation. […] The reaction was carried out using the enzyme (200 nM) and indoxyl-glucoside 33 (100 μM) in phosphate buffer (pH 4-9, containing 2% DMF) at 37° C. […] Note that with 200 nM enzyme and 100 μM substrate, complete reaction requires 500 turnovers of each enzyme.
Reactions with β-glucosidase from Agrobacterium. An indoxyl compound in DMF (2 μL, 5 mM) and β-glucosidase from Agrobacterium in 10 mM phosphate buffer [2 μL, 10 μM, pH 7.0, containing 50 mM NaCl and 0.6 M (NH4)2SO4] were mixed with 50 mM phosphate buffer (96 μL, pH 7.0). The reaction mixture was incubated at 37° C. for 2 h and then centrifuged for 3 min. Any precipitate was separated from the supernatant and dissolved in DMF (200 μL). The resulting solution was analyzed by absorption spectroscopy. The experiment was repeated three times.

[4] = biological target: T2, β-glucosidase from Agrobacterium; assay: Enzyme-triggered oligomerization of bis(indoxyl-glucoside) 46
Protocol: Oligomerization of 46 was carried out by treatment with β-glucosidase from Agrobacterium (200 nM) in 10 mM phosphate buffer (pH 7) at 37° C. for 2-4 h (Scheme 9). Precipitation occurred during the reaction. After centrifugation, the precipitate was separated from the supernatant, washed with H2O, and dried to afford a blue solid.
The efficacy of the indigogenic oligomerization was examined under a variety of conditions. As shown in entries 1-4 in Table 2, the yield of indigoid dye in the supernatant versus precipitate reversed as the concentration of 46 was decreased from 300 to 10 μM, although the total yields were in the range 17-29%. While the reactions in entries 1-4 were carried out in phosphate buffer containing NaCl (0.05 M), those of entries 5 and 6 (with 300 and 50 μM of 46, respectively) were conducted in NaCl-free phosphate buffer. The use of NaCl-free phosphate buffer facilitated extraction of the indigoid dye in the supernatant for analysis.
The time course of the oligomerization was examined under the reaction conditions listed in entry 5 of Table 2, with 300 μM of 46. Noticeable changes include observation of blue clouding and color deepening at 20 min. Centrifugation enabled isolation of the precipitate. […] The absorption spectrum of the precipitate was examined in DMF/DMSO (9:1) and compared with that of the extracted supernatant (in DMF) and 43 (in DMF) (FIG. 10D). […] Size-exclusion chromatography (SEC) [DMF/DMSO (9:1) as eluent] was applied to the precipitate and to the supernatant extract prepared from 300 μM of 46 (FIG. 10E). The first peak appeared at 18-20 min, and then the second peak at 38.5 min. The ratio of peak areas in the supernatant extract was 11:89, whereas that in the precipitate was 93:7. On the basis of a calibration curve prepared with poly(2-vinylpyridine) standards, the molecular size for the first and second peaks was expected to be >265 and <1 kDa, respectively. The large molecular size indicated for the first peak likely implies aggregation or assembly of the oligomers. The chromatograms for the samples prepared with 50 μM of 46 gave similar results but with higher purity compared with those at higher concentration.

[5] = 100 nmol compound V added, absorption spectroscopy and MCA
[6] = absorption spectroscopy and MCA
[7] = indoxyl 1 mM, enzyme 1 unit/mL, 0.01M acetate buffer pH 5, 5% DMF, 37° C., 16-19 h, ϵ = 1.27 × 10^4 M^−1 cm^−1 measured for 4

Question: What does the source list for “2,4-Bis[1-(3-(β-D-glucopyranosyloxy)-4,6-dibromo-1H-indol-5-yl)-1,4,7,10-tetraoxadec-10-yl]-6-[14-(3-(2-(1-azido-3,6,9,12,15-pentaoxoheptadecylamino)-4-[12-((4-methyl-2H-chromen-2-one-7-yl)amino)ethylamino]-1,3,5-triazin-6-yloxy)propyl)-4-(3-sulfopropyl)piperazin-1-yl]-1,3,5-triazine [Compound V]”?
Answer: Indigoid dye in the precipitate [1, 5]: 2.8 nmol; Indigoid dye in the supernatant [1, 5]: 0.3 nmol; Yield of indigoid dye (total) ([1]; 50 μM compound V, 200 nM β-glucosidase, 37° C., 5 h, MCA): 3.1%; Coumarin in the precipitate [1, 6]: 51.6 nmol; Coumarin in the supernatant [1, 6]: 11.1 nmol; Size of aggregates (optical microscopy) ([1]; precipitate after 300 min suspended in H2O): ~1 μm; Total quantity of indigoid dye ([1]; precipitate plus supernatant): 3.1 nmol; Total amount of coumarin calculated by MCA ([1]; precipitate plus supernatant, 100 nmol compound V added): 62.7 nmol

Question: With “5-bromo-4-chloroindoxyl β-glucoside [Compound 42, reference compound]” as the molecule, how does the “Yield (%) β-glucosidase from almonds” value ([2]; as E1 but ϵ = 2.00 × 10^4 M^−1 cm^−1 reported for 5,5′-dibromo-4,4′-dichloroindigo) read?
Answer: The value was 74% and 74^e %.

Question: Which results are given for “5-{[(1R,8S,9s)-Bicyclo[6.1.0]non-4-yn-9-yl]methoxy}-4,6-dibromo-1H-indole-3-yl β-D-glucopyranoside [Compound 30]”?
Answer: Yield (%) β-glucosidase from Agrobacterium ([3]; as E4 but ϵ = 2.6 × 10^4 M^−1 cm^−1 measured for 43): 10% and 10 ± 0.4%; Yield (%) β-glucosidase from Agrobacterium ([3]; indoxyl 100 μM, enzyme 200 nM, 0.05M phosphate buffer pH 7.0, 2% DMF, 37° C., 2 h, n=3, ϵ = 1.27 × 10^4 M^−1 cm^−1): 21 ± 1%

Question: How did the “Yield (%) β-glucosidase from almonds” value [2, 7] turn out when `COC(=O)COc1ccc2[nH]cc(O[C@@H]3O[C@H](CO)[C@@H](O)[C@H](O)[C@H]3O)c2c1` [Compound 22, 5-(Methoxycarbonyl)methoxy-1H-indol-3-yl β-D-glucopyranoside] was run?
Answer: Its value is <1%.

Question: How did the “Yield (%) β-glucosidase from almonds” value [2, 7] turn out when `COC(=O)COc1ccc2[nH]cc(O[C@@H]3O[C@H](CO)[C@@H](O)[C@H](O)[C@H]3O)c2c1Br` [Compound 23, 4-Bromo-5-(methoxycarbonyl)methoxy-1H-indol-3-yl β-D-glucopyranoside] was run?
Answer: Its value is 68%.

Question: `C#CCOc1ccc2[nH]cc(O[C@@H]3O[C@H](CO)[C@@H](O)[C@H](O)[C@H]3O)c2c1` [Compound 25, 5-Propargyloxy-1H-indol-3-yl β-D-glucopyranoside] was tested. Which “Yield (%) β-glucosidase from almonds” value [2, 7] did it give?
Answer: The value was <5%.

Question: How did the “Yield (%) β-glucosidase from almonds” value [2, 7] turn out when `C#CCOc1ccc2[nH]cc(O[C@@H]3O[C@H](CO)[C@@H](O)[C@H](O)[C@H]3O)c2c1Br` [Compound 26, 4-Bromo-5-propargyloxy-1H-indol-3-yl β-D-glucopyranoside] was run?
Answer: Its value is 56%.

Question: What does the source list for `O=S(=O)([O-])CCC[N+]1(CCCO)CCN(c2nc(OCCOCCOCCOc3c(Br)cc4[nH]cc(O[C@@H]5O[C@H](CO)[C@@H](O)[C@H](O)[C@H]5O)c4c3Br)nc(OCCOCCOCCOc3c(Br)cc4[nH]cc(O[C@@H]5O[C@H](CO)[C@@H](O)[C@H](O)[C@H]5O)c4c3Br)n2)CC1` [Compound 46]?
Answer: Total yield of indigoid dye (supernatant plus precipitate) ([4]; entries 1-4 of Table 2, [46] 300 to 10 μM): 17-29%; Yield of indigoid dye (%) supernatant ([4]; entry 1: [46] 300 μM, 2 h, phosphate buffer containing NaCl (0.05M), ε = 2.6 × 10^4): 6%; Yield of precipitate based on the monomer formula weight ([4]; larger scale (7.87 mg), conditions of entry 5 in Table 2): 49%; Particle size of the precipitate (DLS, number mean) ([4]; precipitate suspended in H2O, 300 μM of 46, entry 5 conditions): ~680 nm
